Reference: patent US10072011B2, “Substituted bridged urea analogs as sirtuin modulators” (GlaxoSmithKline Intellectual Property (No.2) Limited, priority 2014, dated 2018)
Where two headings read alike, the source gives them in different places.

Target: T1, SIRT1 (Homo sapiens, UniProt Q96EB6)
T1 sequence (Q96EB6 1-747): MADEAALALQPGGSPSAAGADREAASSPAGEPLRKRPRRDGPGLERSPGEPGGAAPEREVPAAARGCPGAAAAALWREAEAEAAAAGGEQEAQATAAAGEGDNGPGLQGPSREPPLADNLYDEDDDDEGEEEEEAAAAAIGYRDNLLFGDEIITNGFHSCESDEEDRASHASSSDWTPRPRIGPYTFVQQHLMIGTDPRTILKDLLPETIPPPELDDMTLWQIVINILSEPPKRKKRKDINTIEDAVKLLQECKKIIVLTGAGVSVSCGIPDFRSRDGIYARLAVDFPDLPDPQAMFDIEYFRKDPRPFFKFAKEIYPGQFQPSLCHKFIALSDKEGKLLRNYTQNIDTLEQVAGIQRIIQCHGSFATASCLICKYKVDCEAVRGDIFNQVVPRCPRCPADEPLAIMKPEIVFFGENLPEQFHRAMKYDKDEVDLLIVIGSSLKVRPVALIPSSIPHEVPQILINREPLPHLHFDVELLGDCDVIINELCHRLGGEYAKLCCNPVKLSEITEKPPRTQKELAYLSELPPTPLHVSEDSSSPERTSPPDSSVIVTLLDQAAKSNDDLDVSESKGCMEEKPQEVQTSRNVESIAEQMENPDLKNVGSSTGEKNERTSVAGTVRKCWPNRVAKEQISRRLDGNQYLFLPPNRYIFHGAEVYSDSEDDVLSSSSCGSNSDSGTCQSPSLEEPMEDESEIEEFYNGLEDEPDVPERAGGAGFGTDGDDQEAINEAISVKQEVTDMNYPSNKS
Assay: Trp mass spectrometry assay of SIRT1 activation (Ac-R-H-K-K(Ac)-W-NH2 peptide)
Format: biochemical
Conditions: for Emax: 25 min, read-out: TRP MAX RESP (percent maximum fold activation)
Procedure, shortened: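 N-terminal His-tagged human SIRT1, expressed in BL21(DE3) and purified, was incubated 25 min with an acetylated Trp peptide and NAD plus test compound at varying concentrations, then quenched with formic acid. OAADPR or deacetylated peptide was quantified by mass spectrometry versus compound-free control; EC1.5 is the concentration giving 50% activity increase, with percent maximum activation.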

[1] = Trp peptide 0.5 μM, 120 μM βNAD+, 10 nM SIRT1, 25 min at 25° C., relative to control (100%)
[2] = Trp peptide 0.5 μM, 120 μM βNAD+, 10 nM SIRT1, 25 min at 25° C.

SMILES	Emax [1] [%]	TRP Activity (EC1.5, concentration of test compound that results in 150% activation of SIRT1) [2]	Emax [%]
C[C@@H](CO)NC(=O)c1ccc2c(n1)N(C(=O)Nc1ccccn1)[C@H]1CCN2C1 [Example 53, (4S)—N7-((S)-1-hydroxypropan-2-yl)-N5-(pyridin-2-yl)-3,4-dihydro-1,4-methanopyrido[2,3-b][1,4]diazepine-5,7(2H)-dicarboxamide]	> 150	B (EC1.5 1-25 μM)	–
Cc1ccc2c(NC(=O)N3c4nc(C(=O)NC5CC5)ccc4N4CC[C@H]3C4)n[nH]c2n1 [Example 54, (4S)—N7-cyclopropyl-N5-(6-methyl-1H-pyrazolo[3,4-b]pyridin-3-yl)-3,4-dihydro-1,4-methanopyrido[2,3-b][1,4]diazepine-5,7(2H)-dicarboxamide]	> 150	B (EC1.5 1-25 μM)	–
Cc1ccnc(NC(=O)N2c3nc(C(=O)N[C@H](C)C(F)(F)F)ccc3N3CC[C@H]2C3)c1 [Example 55, (4S)—N5-(4-methylpyridin-2-yl)-N7-((R)-1,1,1-trifluoropropan-2-yl)-3,4-dihydro-1,4-methanopyrido[2,3-b][1,4]diazepine-5,7(2H)-dicarboxamide]	> 150	A (EC1.5<1 μM)	–
Cc1ccc(NC(=O)N2c3nc(C(=O)N[C@H](C)C(F)(F)F)ccc3N3CC[C@H]2C3)nc1 [Example 56, (4S)—N5-(5-methylpyridin-2-yl)-N7-((R)-1,1,1-trifluoropropan-2-yl)-3,4-dihydro-1,4-methanopyrido[2,3-b][1,4]diazepine-5,7(2H)-dicarboxamide]	> 150	A (EC1.5<1 μM)	–
Cc1cc(F)cnc1NC(=O)N1c2nc(C(=O)N[C@H](C)C(F)(F)F)ccc2N2CC[C@H]1C2 [Example 57, (4S)—N5-(5-fluoro-3-methylpyridin-2-yl)-N7-((R)-1,1,1-trifluoropropan-2-yl)-3,4-dihydro-1,4-methanopyrido[2,3-b][1,4]diazepine-5,7(2H)-dicarboxamide]	> 150	B (EC1.5 1-25 μM)	–
C[C@@H](NC(=O)c1ccc2c(n1)N(C(=O)Nc1ncc3cc[nH]c3n1)[C@H]1CCN2C1)C(F)(F)F [Example 62, (4S)—N5-(7H-pyrrolo[2,3-d]pyrimidin-2-yl)-N7-((R)-1,1,1-trifluoropropan-2-yl)-3,4-dihydro-1,4-methanopyrido[2,3-b][1,4]diazepine-5,7(2H)-dicarboxamide]	> 150	A (EC1.5<1 μM)	–
O=C(NCC(F)(F)F)c1ccc2c(n1)N(C(=O)Nc1cnccn1)[C@H]1CCN2C1 [Example 63, (4S)—N5-(pyrazin-2-yl)-N7-(2,2,2-trifluoroethyl)-3,4-dihydro-1,4-methanopyrido[2,3-b][1,4]diazepine-5,7(2H)-dicarboxamide]	–	A (EC1.5<1 μM)	> 150
Cc1ccc2c(NC(=O)N3c4nc(C(=O)NCC(F)(F)F)ccc4N4CC[C@H]3C4)n[nH]c2n1 [Example 64, (4S)—N5-(6-methyl-1H-pyrazolo[3,4-b]pyridin-3-yl)-N7-(2,2,2-trifluoroethyl)-3,4-dihydro-1,4-methanopyrido[2,3-b][1,4]diazepine-5,7(2H)-dicarboxamide]	> 150	A (EC1.5<1 μM)	–
C[C@@H](NC(=O)c1ccc2c(n1)N(C(=O)Nc1ccncn1)[C@H]1CCN2C1)C(F)(F)F [Example 66, (4S)—N5-(pyrimidin-4-yl)-N7-((R)-1,1,1-trifluoropropan-2-yl)-3,4-dihydro-1,4-methanopyrido[2,3-b][1,4]diazepine-5,7(2H)-dicarboxamide]	> 150	A (EC1.5<1 μM)	–
